Test results from patent US11447525B2 (NIIGATA UNIVERSITY, priority 2018, dated 2022).
Entries after “also recorded” stand apart in the source; their conditions may differ. Non-standard residues stand in square brackets, D forms with d. Residues, ends and D or L forms follow the SMILES beside them. No end group written: not given here. *: point of attachment. 5FAM = O=C1OC2(c3ccc(O)cc3Oc3cc(O)ccc32)c2ccc(C(=O)*)cc21; NMeR = CN[C@@H](CCCNC(=N)N)C(=O)O

Key:
[1] = tested on: BxPC3 cells, PK-8 cells, AsPC1 cells and MIA-Paca2 cells (PDAC); test: Accumulation of PCPP11 and partially deleted peptides in cells (Reference Example 3); format: cell-based, human; conditions: for order of the strength of fluorescence in the pancreatic cancer cells: same method as Test Example 2; for fluorescence detected (absorbed fluorescence): same method as Test Example 2 (2 μM, 37° C., 2 hours)
Method: Test were conducted confirming the accumulation of PCPP11 and partially deleted peptides thereof in BxPC3 cells, PK-8 cells, AsPC1 cells and MIA-Paca2 cells (all cell lines derived from human invasive pancreatic ductal adenocarcinoma (PDAC)) and in H2110 cells (lung adenocarcinoma cells). The peptides shown below in Table 10 were used.
Using the same method as Test Example 2, each peptide was added to each of the cells and then observed under a microscope. In FIG. 16, “full length” indicates the cells to which FAM-PCPP11 was added, “trunc-ver1” indicates cells to which a trunc-ver1-PCPP11 was added, “trunc-ver2” indicates cells to which a trunc-ver2-PCPP11 was added, and “trunc-ver3” indicates cells to which a trunc-ver3-PCPP11 was added.

[2] = human blood plasma having a concentration of 50% by mass; conditions: up to 120 minutes
[3] = Degradation test by human blood plasma, MALDI-TOFMS analysis; format: in vitro ADME; conditions: 50% by mass human blood plasma; 120 min; read-out: degradation resistance (proportion of the peptide retained without degradation)
Method: Specifically, a peptide composed of the amino acid sequence represented by SEQ ID NO: 1 (hereafter sometimes referred to as “PCPP11”) was added to human blood plasma having a concentration of 50% by mass, the mixture was sampled immediately after starting the degradation test (after 0 minutes), and then after 5 minutes, after 10 minutes, after 20 minutes, after 30 minutes, after 60 minutes and after 120 minutes, and the samples were analyzed by MALDI-TOFMS (Matrix Assisted Laser Desorption/Ionization-Time Of Flight Mass Spectrometry). In Table 2, “UK” is an abbreviation for “unknown”. Further, the No. shown for each peptide in Table 2 corresponds with the numerical value recorded on the peaks of the graphs shown in FIG. 1.
Each of the peptides described above was added to human blood plasma having a concentration of 50% by mass, the resulting mixture was sampled immediately after starting the degradation test (after 0 minutes), and then after 5 minutes, after 10 minutes, after 20 minutes, after 30 minutes, after 60 minutes and after 120 minutes, and the samples were analyzed by MALDI-TOFMS. The results are shown in FIGS. 2 to 6 and Tables 4 to 6 shown below. Furthermore, the data for the degradation test by human blood plasma using PCPP11 from Reference Example 1 and the degradation tests by human blood plasma using each of the above peptides are collated in FIG. 7 and Table 7. The SEQ ID NO listed for the FAM-labeled peptide represents the SEQ ID NO of the peptide portion. Further, the No. shown for each peptide in Tables 4 to 6 corresponds with the numerical value recorded on the peaks of the graphs shown in FIGS. 2 to 6. In each table, in those cases where the numerical values are shown separated into an upper row and a lower row, the upper row value indicates the proportion (%) of peak area for two or more peptides relative to the total peak area in the MALDI-TOFMS analysis. On the other hand, the lower row value indicates the proportion (%) of each peptide when the peak area for the two or more peptides is deemed to be 100%. Moreover, for example, for the peptide No. 9 shown in Table 4, the left-side “70.0%” indicates the proportion (%) of the peptide No. 9 when the total peak area for the peptides No. 9 to 11 is deemed to be 100%, whereas the right-side “65%” indicates the proportion (%) of the peptide No. 9 relative to the total peak area in the MALDI-TOFMS analysis. This system is also used in the following tables.

Molecule: C[C@@H](O)[C@H](NC(=O)[C@@H](NC(=O)[C@@H]1CCCN1C(=O)[C@H](CCCNC(=N)N)NC(=O)c1ccc2c(c1)C(=O)OC21c2ccc(O)cc2Oc2cc(O)ccc21)[C@@H](C)O)C(=O)N[C@@H](Cc1c[nH]c2ccccc12)C(=O)N[C@@H](Cc1c[nH]cn1)C(=O)N[C@@H](CCCCN)C(=O)N1CCC[C@H]1C(=O)O [FAM-trunc-ver1-PCPP11] (5FAM-RPTTWHKP-OH; C-terminus assumed)
- order of the strength of fluorescence in the pancreatic cancer cells [1]: full-length≥trunc-ver3>trunc-ver1>>trunc-ver2

Molecule: [FAM]-RRPTTWHKP (5FAM-RRPTTWHKP-OH; C-terminus assumed; SMILES C[C@@H](O)[C@H](NC(=O)[C@@H](NC(=O)[C@@H]1CCCN1C(=O)[C@H](CCCNC(=N)N)NC(=O)[C@H](CCCNC(=N)N)NC(=O)c1ccc2c(c1)C(=O)OC21c2ccc(O)cc2Oc2cc(O)ccc21)[C@@H](C)O)C(=O)N[C@@H](Cc1c[nH]c2ccccc12)C(=O)N[C@@H](Cc1c[nH]cn1)C(=O)N[C@@H](CCCCN)C(=O)N1CCC[C@H]1C(=O)O)
- fragment found [2]: [FAM]-RRPTTWH, 10 min

Molecule: C[C@@H](O)[C@H](NC(=O)[C@@H](NC(=O)[C@@H]1CCCN1C(=O)c1ccc2c(c1)C(=O)OC21c2ccc(O)cc2Oc2cc(O)ccc21)[C@@H](C)O)C(=O)N[C@@H](Cc1c[nH]c2ccccc12)C(=O)N[C@@H](Cc1c[nH]cn1)C(=O)O [FAM-trunc-ver5-PCPP11, [FAM]-PTTWH] (5FAM-PTTWH-OH; C-terminus assumed)
- fluorescence detected (absorbed fluorescence) [1]: almost no fluorescence was observed

Molecule: C[C@@H](O)[C@H](NC(=O)[C@@H](NC(=O)[C@@H]1CCCN1C(=O)[C@H](CCCNC(=N)N)NC(=O)[C@H](CCCNC(=N)N)NC(=O)c1ccc2c(c1)C(=O)OC21c2ccc(O)cc2Oc2cc(O)ccc21)[C@@H](C)O)C(=O)N[C@@H](Cc1c[nH]c2ccccc12)C(=O)N[C@@H](Cc1c[nH]cn1)C(=O)N[C@@H](CCCCN)C(=O)N1CCC[C@H]1C(=O)O [No. 13, reference compound] (5FAM-RRPTTWHKP-OH; C-terminus assumed)
- order of the strength of fluorescence in the pancreatic cancer cells [1]: full-length≥trunc-ver3>trunc-ver1>>trunc-ver2
- remaining at 2 h [3]: 29%

Molecule: R-mR-PTTWHKP-G-pkhwttprr (H-R[NMeR]PTTWHKPG[dP][dK][dH][dW][dT][dT][dP][dR][dR]-OH; N-terminus and C-terminus assumed; SMILES C[C@H](O)[C@@H](NC(=O)[C@@H](Cc1c[nH]c2ccccc12)NC(=O)[C@@H](Cc1c[nH]cn1)NC(=O)[C@@H](CCCCN)NC(=O)[C@H]1CCCN1C(=O)CNC(=O)[C@@H]1CCCN1C(=O)[C@H](CCCCN)NC(=O)[C@H](Cc1c[nH]cn1)NC(=O)[C@H](Cc1c[nH]c2ccccc12)NC(=O)[C@@H](NC(=O)[C@@H](NC(=O)[C@@H]1CCCN1C(=O)[C@H](CCCNC(=N)N)N(C)C(=O)[C@@H](N)CCCNC(=N)N)[C@@H](C)O)[C@@H](C)O)C(=O)N[C@@H](C(=O)N1CCC[C@@H]1C(=O)N[C@H](CCCNC(=N)N)C(=O)N[C@H](CCCNC(=N)N)C(=O)O)[C@H](C)O)
- not cleaved [2]: no degradation products within 120 minutes; 100% at 120 min

Molecule: RRPTTWHKP-G-RRPTTWHKP-G-RRPTTWHKP (RRPTTWHKPGRRPTTWHKPGRRPTTWHKP)
- not cleaved [2]: no degradation products within 120 minutes; 100% at 120 min

Molecule: RRPTTWHKP-G-RRPTTWHKP (RRPTTWHKPGRRPTTWHKP)
- fragment found [2]: TTWHKP-G-RRPTTWHKP, 60 min; also recorded: RPTTWHKP-G-RRPTTWHKP, 20 min

Molecule: RRPTTWHKP
- cleaved bond [2]: arginine-arginine, 5 min
- fragment found [2]: RPTTWHKP and RRPTTWH and RPTTWH and TTWHKP and TTWH and TWH, 30 min and WH, 60 min

Molecule: C[C@@H](O)[C@H](NC(=O)[C@@H](NC(=O)[C@@H]1CCCN1C(=O)[C@H](CCCNC(=N)N)NC(=O)[C@H](CCCNC(=N)N)NC(=O)c1ccc2c(c1)C(=O)OC21c2ccc(O)cc2Oc2cc(O)ccc21)[C@@H](C)O)C(=O)N[C@@H](Cc1c[nH]c2ccccc12)C(=O)N[C@@H](Cc1c[nH]cn1)C(=O)O [FAM-trunc-ver3-PCPP11, [FAM]-RRPTTWH] (5FAM-RRPTTWH-OH; C-terminus assumed)
- order of the strength of fluorescence in the pancreatic cancer cells [1]: full-length≥trunc-ver3>trunc-ver1>>trunc-ver2

Molecule: C[C@@H](O)[C@H](NC(=O)[C@@H](NC(=O)[C@@H]1CCCN1C(=O)[C@H](CCCNC(=N)N)NC(=O)c1ccc2c(c1)C(=O)OC21c2ccc(O)cc2Oc2cc(O)ccc21)[C@@H](C)O)C(=O)N[C@@H](Cc1c[nH]c2ccccc12)C(=O)O [FAM-trunc-ver4-PCPP11, [FAM]-RPTTW] (5FAM-RPTTW-OH; C-terminus assumed)
- fluorescence detected (absorbed fluorescence) [1]: almost no fluorescence was observed

Molecule: C[C@@H](O)[C@H](NC(=O)c1ccc2c(c1)C(=O)OC21c2ccc(O)cc2Oc2cc(O)ccc21)C(=O)N[C@H](C(=O)N[C@@H](Cc1c[nH]c2ccccc12)C(=O)N[C@@H](Cc1c[nH]cn1)C(=O)N[C@@H](CCCCN)C(=O)N1CCC[C@H]1C(=O)O)[C@@H](C)O [FAM-trunc-ver2-PCPP11, [FAM]-TTWHKP] (5FAM-TTWHKP-OH; C-terminus assumed)
- order of the strength of fluorescence in the pancreatic cancer cells [1]: full-length≥trunc-ver3>trunc-ver1>>trunc-ver2
- fluorescence detected (absorbed fluorescence) [1]: marked reduction in absorbed fluorescence

Molecule: R-mR-PTTWHKP-G-RRPTTWHKP (H-R[NMeR]PTTWHKPGRRPTTWHKP-OH; N-terminus and C-terminus assumed; SMILES C[C@@H](O)[C@H](NC(=O)[C@@H](NC(=O)[C@@H]1CCCN1C(=O)[C@H](CCCNC(=N)N)NC(=O)[C@H](CCCNC(=N)N)NC(=O)CNC(=O)[C@@H]1CCCN1C(=O)[C@H](CCCCN)NC(=O)[C@H](Cc1c[nH]cn1)NC(=O)[C@H](Cc1c[nH]c2ccccc12)NC(=O)[C@@H](NC(=O)[C@@H](NC(=O)[C@@H]1CCCN1C(=O)[C@H](CCCNC(=N)N)N(C)C(=O)[C@@H](N)CCCNC(=N)N)[C@@H](C)O)[C@@H](C)O)[C@@H](C)O)C(=O)N[C@@H](Cc1c[nH]c2ccccc12)C(=O)N[C@@H](Cc1c[nH]cn1)C(=O)N[C@@H](CCCCN)C(=O)N1CCC[C@H]1C(=O)O)
- not cleaved [2]: 100% after 120 minutes
